Assay results: US9566334B2, “Combinations of a PI3K/AKT inhibitor compound with an HER3/EGFR inhibitor compound and use thereof in the treatment of a hyperproliferative disorder” (THE GENERAL HOSPITAL CORPORATION, priority 2012, dated 2017)
“Also recorded” adds a separate entry of the source.

Assays:
[1] = tested on: patient-derived xenografts (PDX) of TNBC; assay: Patient-derived xenograft tumor growth; type: in vivo, mice; settings: MEHD7945A 10 mg/Kg twice weekly, GDC-0941 75 mg/Kg daily, GDC-0068 40 mg/kg daily
Procedure: The activity of the same treatments in patient-derived xenografts (PDX) of TNBC was then tested.
(§1) For patient-derived xenograft (PDX) studies, tumors were subcutaneously implanted in 6-week old female athymic nude mice. Upon xenograft growth, tumor tissue was reimplanted into recipient mice, which were randomized upon implant growth. For the collection of circulating tumor cells (CTCs), tumors were implanted into the mammary pad of athymic nude mice.
(§2) Once tumors reached an average volume of about 150-250 mm^3, mice were randomized into treatment arms, with n=7-11 tumors/group. GDC-0068 [40 mg/kg] or GDC-0941 [75 mg/kg] were dissolved in 0.5% methylcellulose and 0.2% Tween-80 (MCT) solution and administered once daily via oral gavage. […] Tumors were measured by digital caliper over the entire treatment period. Tumor volume was determined using the formula: (length×width^2)×(π/6). Tumor volumes are plotted as means±SEM.

[2] = tested on: MDA-MB-468- and HCC70-derived xenografts; assay: Cell line-derived xenograft tumor growth; type: in vivo, mice; settings: MDA-MB-468 and HCC70 xenografts; p less than 0.01 combination vs monotherapy
Procedure: To expand these findings in vivo, the efficacy of MEHD7945A was tested in combination with either the Akt or PI3K inhibitor in both MDA-MB-468- and HCC70-derived xenografts.
(§3) For cell line-derived xenograft studies, mice were injected subcutaneously with 1×10^7 HCC70 or MDA-MB-468 suspended in 150 μL culture media/Matrigel (BD Biosciences) in a 4:1 ratio. One μmol/L of 17β-estradiol was supplemented in the mouse drinking water as described (Garcia-Garcia et al., Clinical cancer research: an official journal of the American Association for Cancer Research 18, 2603 (2012)).
as §2

[3] = tested on: HCC70 and MDA-MB-468 cells; assay: Five days proliferation analysis (Crystal Violet / CellTiter-Glo); type: cell-based; settings: 5 days; MEHD7945A 10 nM, GDC-0068 and GDC-0941 1 uM
Procedure: Whether the combination of MEHD7945A with GDC-0068 or GDC-0941 would result in enhanced antiproliferative activity was tested in both HCC70 and MDA-MB-468 cells.
(§4) For proliferation, 5×10^5 cells were seeded in 96-well plates and treated with the indicated concentrations of GDC-0068, GDC-0941, and/or MEHD7945A. After 5 days, cells were fixed and stained with Crystal Violet. Cell proliferation was also analyzed with CellTiter-Glo Luminescent Cell Viability Assay (Promega) as described by the manufacturer. For heregulin (HRG, Peprotech) and epidermal growth factor (EGF, Peprotech)-induced proliferation, 5×10^5 cells were treated with GDC-0068, GDC-0941, and/or MEHD7945A in the presence of 4 ng/ml of ligands for 5 days and then stained with Crystal Violet.

TNBC cell lines = assay: Cell viability by CellTiter-Glo and Crystal Violet; type: cell-based; settings: across all TNBC cell lines; read-out: IC50s, inhibition of cell viability
Procedure: (§5) Several TNBC cell lines were treated with MEHD7945A, a dual-action antibody that targets both EGFR and HER3, AKT inhibitor GDC-0068, and pan-PI3K inhibitor GDC -0941. Cell viability was measured by CellTiter-Glo and Crystal Violet. Both cell line- and patient -derived xenograft models of TNBC were treated with MEHD7945A, GDC-0068, GDC-0941, or the combination of MEHD7945A with either GDC-0068 or GDC-0941. Tumor size and histology were examined. Protein expression was measured by Western blot, Mass Spectometry, CEER and immunohistochemistry.
as §4

[4] = tested on: MDA-MB-468, HCC70 and patient-derived xenograft; assay: In vivo activity in three different models of TNBC; set-up: species or system mice; settings: three TNBC models; MEHD7945A 10 mg/kg i.p. twice weekly, GDC-0068 40 mg/kg, GDC-0941 75 mg/kg oral once daily
Procedure: as §5
To test the activity of these compounds in vivo, three different models of TNBC were used: two cell line (MDA-MB-468 and HCC70)-based and a patient-derived xenograft.
All mouse studies were conducted through institutional Animal Care and Use Committee (IACUC) approved animal protocols in accordance with institutional guidelines. Six-week-old female athymic nude mice were purchased from Charles River Laboratories and housed in air-filtered laminar flow cabinets with a 12-hour light cycle and food and water ad libitum.
as §3, §1, §2

[5] = tested on: EGFR, HER3 and downstream signaling pathways; assay: Western blot of EGFR, HER3 and downstream signaling in cells; type: cell-based; settings: 24 hours, 1 uM; for expression of HER3: HCC70 and MDA-MB-468 cells; for activation of EGFR and HER3: HCC70 cells
Procedure: HCC70 and MDA-MB-468 TNBC cell lines, characterized by elevated levels of EGFR and loss of PTEN expression, were treated with GDC-0068, GDC-0941, MEHD7945A, and the combinations of these inhibitors.
Cells were washed with ice-cold phosphate buffered saline (PBS) and scraped into ice-cold RIPA lysis buffer (Cell Signaling) supplemented with phosphatase inhibitor cocktails (Complete Mini, and PhosphoStop (Roche)). Lysates were cleared by centrifugation at 13,000 rpm for 10 minutes at 4° C., supernatants removed and assayed for protein concentration using the Pierce BCA Protein Assay Kit (Thermo Scientific). Thirty-five micrograms of total lysate was resolved on NuPAGE 4-12% Bis-Tris gels (Life Technologies) and electrophoretically transferred to Immobilon transfer membranes (Millipore). Membranes were blocked for 1 hour in 5% nonfat dry milk in TBS-Tween and then hybridized using the following primary antibodies in 5% bovine serum albumin (BSA) TBS-Tween: phospho-Akt (Ser473), phospho-Akt (Thr308), Akt, phospho-S6 (Ser(240/4), phospho-S6 (Ser235/6), S6, phospho-PRAS40 (Thr246), PRAS40, phospho-Erk (Thr202/Tyr204), Erk, phospho-EGFR (Tyr1068), EGFR, phospho-HER3 (Tyr1289), HER3 (1:500-1:1000, Cell Signaling). Beta-actin was used as a loading control (1:5000, Sigma), also in 5% BSA TBS-Tween. Mouse and rabbit horseradish peroxidase (HRP)-conjugated secondary antibodies (1:50,000, Amersham Biosciences) were diluted in 2% nonfat dry milk in TBS-Tween. Protein—antibody complexes were detected by chemiluminescence with SuperSignal West FemtoChemiluminescent Substrate (Thermo Scientific) and images were captured with a G-BOX camera system.

EGFR and HER3 = assay: CEER analysis of active and total EGFR and HER3 in xenograft tumors; type: in vivo, mice; settings: for active and total levels of HER3 and EGFR (CEER): TNBC PDX, tumors harvested 2 h after the last drug administration
Procedure: The levels of EGFR and HER3 expression/activation in HCC70 tumors collected at the end of the experiments (day 39) was investigated. […] Frozen tissue was analyzed by Cooperative, Enhanced, Enzyme Immunoreactive (CEER), a platform that utilizes reverse-phase detection of nanogram quantities of protein.
The levels of pathway protein expression and their activation in xenografts were determined by CEER. (Kim et al., ASCO Annual Meeting abstract P2-06-13, (2010)) CEER utilizes the formation of unique immuno-complexes between capture antibodies printed on a nitrocellulose microarray surface, the target molecule in cell lysate reacted with the slide, and two independent detector-antibodies. One of the detector-antibody is conjugated to glucose oxidase, and the other is conjugated to horseradish peroxidase. Target detection (expressed as computational unit, CU) requires the presence of both detector-antibodies and the enzyme channeling event between glucose oxidase and horseradish peroxidase will not occur unless both antibodies are in close proximity.

[6] = HCC70 tumors collected at day 39

CS(=O)(=O)N1CCN(Cc2cc3nc(-c4cccc5[nH]ncc45)nc(N4CCOCC4)c3s2)CC1 [GDC-0941, 4-(2-(1H-indazol-4-yl)-6-((4-(methylsulfonyl)piperazin-1-yl)methyl)thieno[3,2-d]pyrimidin-4-yl)morpholine]
tumor growth [1]: delayed tumor growth | tumor growth inhibition [2]: responded only modestly | inhibition of cell proliferation/viability [3]: varying sensitivity | IC50 (TNBC cell lines): ≥ 170 nM | tumor growth [4]: variable delay in tumor growth | expression of HER3 [5]: increased expression of HER3 | activation of EGFR and HER3 [5]: activation of both EGFR and HER3 | EGFR and HER3 expression and phosphorylation (CEER) (EGFR and HER3; [6]): overall increase of both EGFR and HER3 expression and phosphorylation | active and total levels of HER3 and EGFR (CEER) (EGFR and HER3): increased

CC(C)NC[C@@H](C(=O)N1CCN(c2ncnc3c2[C@H](C)C[C@H]3O)CC1)c1ccc(Cl)cc1 [GDC-0068]
tumor growth [1]: superior antitumor activity compared with GDC-0941 | tumor growth inhibition [2]: responded only modestly | inhibition of cell proliferation/viability [3]: varying sensitivity | IC50 (TNBC cell lines): ≥ 170 nM | tumor growth [4]: variable delay in tumor growth | expression of HER3 [5]: increased expression of HER3 | activation of EGFR and HER3 [5]: activation of both EGFR and HER3 | EGFR and HER3 expression and phosphorylation (CEER) (EGFR and HER3; [6]): overall increase of both EGFR and HER3 expression and phosphorylation | total EGFR receptor levels (CEER) (EGFR and HER3; [6]): no changes in the total receptor levels were observed | active and total levels of HER3 and EGFR (CEER) (EGFR and HER3): increased; also recorded: lower ability to induce EGFR and HER3 phosphorylation
